From ChEMBL document CHEMBL1201862, “PubChem BioAssay data set” (2004)
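A five-concentration, 48-hour dose response in 96-well plates underlies each endpoint, interpolated linearly between surrounding concentrations. Here, GI50 denotes the concentration required for 50% inhibition of growth.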 The source made the active and inactive calls. Cut-off read from the data, not from the text of the source: active = GI50 up to about 1.1 µM and inactive = higher.

Tests used:
Experiment in all cases: NCI-60 cell line screen, 48 h
OVCAR-5 = tested on: OVCAR-5
HOP-62 = tested on: HOP-62
NCI-H226 = tested on: NCI-H226
K562 = tested on: K562
MCF7 = tested on: MCF7
SK-MEL-5 = tested on: SK-MEL-5
HCT-15 = tested on: HCT-15
SK-OV-3 = tested on: SK-OV-3
UACC-62 = tested on: UACC-62
HOP-92 = tested on: HOP-92
RXF 393 = tested on: RXF 393
LOX IMVI = tested on: LOX IMVI
UACC-257 = tested on: UACC-257
PC-3 = tested on: PC-3
Malme-3M = tested on: Malme-3M
Hs-578T = tested on: Hs-578T
MDA-MB-435 = tested on: MDA-MB-435
HCT-116 = tested on: HCT-116
NCI-H460 = tested on: NCI-H460
MDA-N = tested on: MDA-N

Compound | GI50 (OVCAR-5) | GI50 (HOP-62) | GI50 (NCI-H226) | GI50 (K562) | GI50 (MCF7) | GI50 (SK-MEL-5) | GI50 (HCT-15) [µM] | GI50 (SK-OV-3) | GI50 (UACC-62) | GI50 (HOP-92) | GI50 (RXF 393) | GI50 (LOX IMVI) | GI50 (UACC-257) | GI50 (PC-3) | GI50 (Malme-3M) | GI50 (Hs-578T) | GI50 (MDA-MB-435) | GI50 (HCT-116) | GI50 (NCI-H460) | GI50 (MDA-N)
CSCCC(N)P(C)(=O)O (configuration not stated) | > 100 µM (inactive) | > 100 µM (inactive) | > 100 µM (inactive) | > 100 µM (inactive) | > 100 µM (inactive) | > 100 µM (inactive) | > 100 | > 100 µM (inactive) | > 100 µM (inactive) | > 100 µM (inactive) | > 100 µM (inactive) | > 100 µM (inactive) | > 100 µM (inactive) | > 100 µM (inactive) | > 100 µM (inactive) | > 100 µM (inactive) | > 22.2 µM (inactive) | > 100 µM (inactive) | > 100 µM (inactive) | > 100 µM (inactive)
CC(=O)O[C@@H]1C2=C(C3=C([O-])C4=CC=CC(=O)C4C(=O)C3=C2[N+]#N)[C@H](OC(C)=O)[C@@H](OC(C)=O)[C@]1(C)O (some centres not stated) | 0.353 µM (active) | 0.711 µM (active) | 0.537 µM (active) | 0.151 µM (active) | 0.392 µM (active) | 0.506 µM (active) | 0.119 | 0.731 µM (active) | 0.661 µM (active) | 0.438 µM (active) | 0.565 µM (active) | 0.124 µM (active) | 0.719 µM (active) | 0.417 µM (active) | 0.332 µM (active) | 0.173 µM (active) | 0.644 µM (active) | 0.1 µM (active) | 0.693 µM (active) | 0.361 µM (active)
O=[N+]([O-])C(/C=C(\Cl)[N+](=O)[O-])=C1Nc2ccccc2N1 | – | > 100 µM (inactive) | 43.3 µM (inactive) | 79.6 µM (inactive) | 39.6 µM (inactive) | 70.8 µM (inactive) | 59.4 | 42.4 µM (inactive) | 33.4 µM (inactive) | 18.3 µM (inactive) | 38.1 µM (inactive) | 34.8 µM (inactive) | 33.3 µM (inactive) | 46.3 µM (inactive) | 42.2 µM (inactive) | 48.9 µM (inactive) | 42.6 µM (inactive) | 50.1 µM (inactive) | > 100 µM (inactive) | 59.8 µM (inactive)
CC(Oc1ccccc1Cl)C(=O)NN1C(=O)CSC1c1ccc(Cl)cc1 (configuration not stated) | 22.8 µM (inactive) | 17.4 µM (inactive) | 18.2 µM (inactive) | 6.73 µM (inactive) | 18.1 µM (inactive) | 17.6 µM (inactive) | 19.5 | 18.8 µM (inactive) | 17.8 µM (inactive) | 20 µM (inactive) | 17.3 µM (inactive) | 19.6 µM (inactive) | 23.6 µM (inactive) | 18.9 µM (inactive) | 27 µM (inactive) | 20.4 µM (inactive) | 16.4 µM (inactive) | 14.5 µM (inactive) | 25.4 µM (inactive) | 15.2 µM (inactive)
CCCCCCCCCCCCCCCCCC(=O)OCC(COC(=O)CCCN)OC(=O)CCCN (configuration not stated) | 15.9 µM (inactive) | 17.4 µM (inactive) | 20.6 µM (inactive) | 35.6 µM (inactive) | 24.4 µM (inactive) | – | 23.7 | 18.3 µM (inactive) | 18.2 µM (inactive) | 13.4 µM (inactive) | 15.1 µM (inactive) | 18.5 µM (inactive) | 19.6 µM (inactive) | 17.1 µM (inactive) | 23.2 µM (inactive) | 19.2 µM (inactive) | 17.2 µM (inactive) | 19.5 µM (inactive) | 14.9 µM (inactive) | 19.9 µM (inactive)
O=CN1CCC23CC(O)CCC2C1Cc1cc(Oc2nnnn2-c2ccccc2)cc(O)c13 (configuration not stated) | > 100 µM (inactive) | > 100 µM (inactive) | > 100 µM (inactive) | > 100 µM (inactive) | 54 µM (inactive) | 47.2 µM (inactive) | 80 | > 100 µM (inactive) | 65.2 µM (inactive) | 44.7 µM (inactive) | > 100 µM (inactive) | 57.3 µM (inactive) | > 100 µM (inactive) | > 100 µM (inactive) | > 100 µM (inactive) | > 100 µM (inactive) | 66.7 µM (inactive) | > 100 µM (inactive) | 85.9 µM (inactive) | > 100 µM (inactive)
CCOC(=O)c1cc2c([N+](=O)[O-])c(NC(C)=O)ccc2s1 | > 100 µM (inactive) | 90.2 µM (inactive) | 13.3 µM (inactive) | 53.6 µM (inactive) | 63 µM (inactive) | 39.4 µM (inactive) | 86.9 | > 100 µM (inactive) | 66.7 µM (inactive) | 44.8 µM (inactive) | 20.2 µM (inactive) | 60.4 µM (inactive) | > 100 µM (inactive) | 33.5 µM (inactive) | 28.2 µM (inactive) | 37.8 µM (inactive) | 76.4 µM (inactive) | 87.9 µM (inactive) | > 100 µM (inactive) | 81.8 µM (inactive)
CN(O)C(=O)CCCC(=O)NCC(C)(C)CNC(=O)CCCC(=O)N(C)O | > 100 µM (inactive) | > 100 µM (inactive) | > 100 µM (inactive) | > 100 µM (inactive) | > 100 µM (inactive) | > 100 µM (inactive) | > 100 | > 100 µM (inactive) | > 100 µM (inactive) | > 100 µM (inactive) | > 100 µM (inactive) | > 100 µM (inactive) | > 100 µM (inactive) | > 100 µM (inactive) | > 100 µM (inactive) | > 100 µM (inactive) | > 100 µM (inactive) | – | > 100 µM (inactive) | > 100 µM (inactive)
